Reference: PubChem BioAssay (NCI)
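How tested: cells in 96-well plates exposed to compound for 48 hours at five concentrations. GI50 is the concentration that inhibits growth by half. TGI marks complete inhibition of growth.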

How the values were obtained:
Assay in all cases: NCI tumour cell line growth inhibition, 48 h
[1] = test system: COLO 205 colon
[2] = test system: SK-MEL-2 melanoma
[3] = test system: MALME-3M melanoma
[4] = test system: IGROV1 ovarian
[5] = test system: SK-OV-3 ovarian
[6] = test system: PC-3 prostate
[7] = test system: NCI-H23 lung
[8] = test system: MOLT-4 leukemia
[9] = test system: MDA-MB-231 breast
[10] = test system: MDA-N
[11] = test system: UACC-257 melanoma
[12] = test system: HOP-92 NSCLC
[13] = test system: RXF 393 renal
[14] = test system: SNB-19 CNS
[15] = test system: RPMI-8226 leukemia
[16] = test system: 786-0 renal
[17] = test system: SN12C renal
[18] = test system: NCI-H522 lung
[19] = test system: CAKI-1 renal
[20] = test system: CCRF-CEM leukemia
[21] = test system: K-562 leukemia
[22] = test system: HT29 colon
[23] = test system: A498 renal
[24] = test system: EKVX NSCLC
[25] = test system: HCC-2998 colon
[26] = test system: NCI-H226 lung
[27] = test system: HL-60(TB) leukemia
[28] = test system: SK-MEL-28 melanoma
[29] = test system: OVCAR-8 ovarian
[30] = test system: A549 NSCLC
[31] = test system: OVCAR-4 ovarian
[32] = test system: NCI-H460 lung
[33] = test system: HCT-116 colon
[34] = test system: SR leukemia
[35] = test system: TK-10 renal
[36] = test system: OVCAR-3 ovarian
[37] = test system: OVCAR-5 ovarian
[38] = test system: SF-295 CNS
[39] = test system: MCF7 breast
[40] = test system: HS 578T breast
[41] = test system: HOP-62 NSCLC
[42] = test system: SK-MEL-5 melanoma
[43] = test system: SNB-75 CNS
[44] = test system: NCI/ADR-RES ovarian
[45] = test system: SF-539 CNS
[46] = test system: ACHN renal
[47] = test system: M14 melanoma
[48] = test system: HCT-15 colon
[49] = test system: UO-31 renal
[50] = test system: T-47D breast
[51] = test system: SW-620 colon
[52] = test system: UACC-62 melanoma
[53] = test system: SF-268 CNS
[54] = test system: DU-145 prostate
[55] = test system: MDA-MB-435
[56] = test system: KM12 colon
[57] = test system: BT-549 breast
[58] = test system: LOX IMVI melanoma
[59] = test system: U251 CNS

SMILES: CN(C)C=Nc1c(Br)cc(Br)c2nonc12
- TGI [1]: > 100 µM
- TGI [2]: > 100 µM
- TGI [3]: > 100 µM
- TGI [4]: > 100 µM
- TGI [5]: > 100 µM
- TGI [6]: > 100 µM
- TGI [7]: > 100 µM
- TGI [8]: > 100 µM
- TGI [9]: > 100 µM
- TGI [10]: > 100 µM
- TGI [11]: > 100 µM
- TGI [12]: > 100 µM
- TGI [13]: > 100 µM
- TGI [14]: > 100 µM
- TGI [15]: > 100 µM
- TGI [16]: > 100 µM
- TGI [17]: > 100 µM
- TGI [18]: > 100 µM
- TGI [19]: > 100 µM
- TGI [20]: > 100 µM
- TGI [21]: > 100 µM
- TGI [22]: > 100 µM
- TGI [23]: > 100 µM
- TGI [24]: > 100 µM
- TGI [25]: > 100 µM
- TGI [26]: > 100 µM
- TGI [27]: > 100 µM
- TGI [28]: > 100 µM
- TGI [29]: > 100 µM
- TGI [30]: > 100 µM
- TGI [31]: > 100 µM
- TGI [32]: > 100 µM
- TGI [33]: > 100 µM
- TGI [34]: > 100 µM
- TGI [35]: > 100 µM
- TGI [36]: > 100 µM
- TGI [37]: > 100 µM
- TGI [38]: > 100 µM
- TGI [39]: > 100 µM
- TGI [40]: > 100 µM
- TGI [41]: > 100 µM
- TGI [42]: > 100 µM
- TGI [43]: > 100 µM
- TGI [44]: > 100 µM
- TGI [45]: > 100 µM
- TGI [46]: > 100 µM
- TGI [47]: > 100 µM
- TGI [48]: > 100 µM
- TGI [49]: > 100 µM
- TGI [50]: > 100 µM
- TGI [51]: > 100 µM
- TGI [52]: > 100 µM
- TGI [53]: > 100 µM
- TGI [54]: > 100 µM
- TGI [55]: > 100 µM
- TGI [56]: > 100 µM

SMILES: C=CCN(c1cc(OCc2ccccc2)c2c(c1)c(C)cn2S(=O)(=O)c1ccccc1)S(C)(=O)=O
- TGI [1]: > 100 µM
- TGI [2]: > 100 µM
- TGI [3]: > 100 µM
- TGI [4]: > 100 µM
- TGI [5]: > 100 µM
- TGI [6]: > 100 µM
- TGI [7]: > 100 µM
- TGI [8]: > 100 µM
- TGI [57]: > 100 µM
- TGI [9]: > 100 µM
- TGI [10]: > 100 µM
- TGI [11]: > 100 µM
- TGI [12]: > 100 µM
- TGI [13]: > 100 µM
- TGI [14]: > 100 µM
- TGI [15]: > 100 µM
- TGI [16]: > 100 µM
- TGI [17]: > 100 µM
- TGI [18]: > 100 µM
- TGI [19]: > 100 µM
- TGI [20]: > 100 µM
- TGI [21]: > 100 µM
- TGI [22]: > 100 µM
- TGI [24]: > 100 µM
- TGI [25]: > 100 µM
- TGI [26]: > 100 µM
- TGI [27]: > 100 µM
- TGI [28]: > 100 µM
- TGI [29]: > 100 µM
- TGI [30]: > 100 µM
- TGI [31]: > 100 µM
- TGI [32]: > 100 µM
- TGI [33]: > 100 µM
- TGI [34]: > 100 µM
- TGI [35]: > 100 µM
- TGI [36]: > 100 µM
- TGI [37]: > 100 µM
- TGI [38]: > 100 µM
- TGI [40]: > 100 µM
- TGI [41]: > 100 µM
- TGI [42]: > 100 µM
- TGI [43]: > 100 µM
- TGI [44]: > 100 µM
- TGI [45]: > 100 µM
- TGI [46]: > 100 µM
- TGI [47]: > 100 µM
- TGI [58]: > 100 µM
- TGI [59]: > 100 µM
- TGI [48]: > 100 µM
- TGI [50]: > 100 µM
- TGI [51]: > 100 µM
- TGI [52]: > 100 µM
- TGI [53]: > 100 µM
- TGI [54]: > 100 µM
- TGI [55]: > 100 µM
- TGI [56]: > 100 µM

SMILES: O=c1cc(-c2ccccc2)nc2cc(-c3ccco3)[nH]n12
- GI50 [1]: 6.65 µM
- TGI [1]: 44 µM
- GI50 [2]: 6.53 µM
- TGI [2]: 54.2 µM
- GI50 [3]: 3.47 µM
- TGI [3]: 94.5 µM
- GI50 [4]: 7.91 µM
- TGI [4]: 60 µM
- GI50 [5]: 14.2 µM
- TGI [5]: 82.8 µM
- GI50 [6]: 15 µM
- TGI [6]: > 100 µM
- GI50 [7]: 13.2 µM
- TGI [7]: 89.1 µM
- GI50 [8]: 10.7 µM
- TGI [8]: > 100 µM
- GI50 [57]: 14.8 µM
- TGI [57]: > 100 µM
- GI50 [9]: 7.84 µM
- TGI [9]: > 100 µM
- GI50 [11]: 17.3 µM
- TGI [11]: > 100 µM
- GI50 [12]: 10.5 µM
- TGI [12]: 93.3 µM
- GI50 [13]: 18.9 µM
- TGI [13]: > 100 µM
- GI50 [14]: 12.6 µM
- TGI [14]: > 100 µM
- GI50 [15]: 13.7 µM
- TGI [15]: 89.9 µM
- GI50 [16]: 31 µM
- TGI [16]: > 100 µM
- GI50 [17]: 18.5 µM
- TGI [17]: > 100 µM
- GI50 [18]: 6.77 µM
- TGI [18]: 40.7 µM
- GI50 [19]: 5.21 µM
- TGI [19]: 55.4 µM
- GI50 [20]: 16.3 µM
- TGI [20]: > 100 µM
- GI50 [21]: 4.06 µM
- TGI [21]: > 100 µM
- GI50 [22]: 4.22 µM
- TGI [22]: > 100 µM
- GI50 [23]: 3.6 µM
- TGI [23]: 28.6 µM
- GI50 [24]: 15.6 µM
- TGI [24]: 78.3 µM
- GI50 [25]: 13.3 µM
- TGI [25]: > 100 µM
- GI50 [26]: 47.9 µM
- TGI [26]: > 100 µM
- GI50 [27]: 11.1 µM
- TGI [27]: > 100 µM
- GI50 [28]: 8.78 µM
- TGI [28]: > 100 µM
- GI50 [29]: 18 µM
- TGI [29]: > 100 µM
- GI50 [30]: 12.6 µM
- TGI [30]: > 100 µM
- GI50 [31]: 23 µM
- TGI [31]: > 100 µM
- GI50 [32]: 4.49 µM
- TGI [32]: 20.6 µM
- GI50 [33]: 15.7 µM
- TGI [33]: > 100 µM
- GI50 [34]: 3.14 µM
- TGI [34]: 82.5 µM
- GI50 [35]: 19.8 µM
- TGI [35]: 96.9 µM
- GI50 [36]: 10.8 µM
- TGI [36]: 37.1 µM
- GI50 [37]: 42.2 µM
- TGI [37]: > 100 µM
- GI50 [38]: 3.64 µM
- TGI [38]: 25.6 µM
- GI50 [39]: 554 nM
- TGI [39]: > 100 µM
- GI50 [40]: 7.1 µM
- TGI [40]: 37.3 µM
- GI50 [41]: 13.4 µM
- TGI [41]: > 100 µM
- GI50 [42]: 6.58 µM
- TGI [42]: 22.1 µM
- GI50 [43]: 12.5 µM
- TGI [43]: > 100 µM
- GI50 [44]: 11.4 µM
- TGI [44]: 50.9 µM
- GI50 [45]: 13.3 µM
- TGI [45]: 78.9 µM
- GI50 [46]: 22.6 µM
- TGI [46]: > 100 µM
- GI50 [47]: 9.45 µM
- TGI [47]: > 100 µM
- GI50 [58]: 15.2 µM
- TGI [58]: > 100 µM
- GI50 [59]: 4.74 µM
- TGI [59]: > 100 µM
- GI50 [48]: 6.16 µM
- TGI [48]: > 100 µM
- GI50 [49]: 7.92 µM
- TGI [49]: 59.8 µM
- GI50 [50]: 4.44 µM
- TGI [50]: > 100 µM
- GI50 [51]: 4.51 µM
- TGI [51]: > 100 µM
- GI50 [52]: 5.66 µM
- TGI [52]: > 100 µM
- GI50 [53]: 14.9 µM
- TGI [53]: > 100 µM
- GI50 [54]: 19.5 µM
- TGI [54]: 79.7 µM
- GI50 [55]: 1970 nM
- TGI [55]: 5.67 µM
- GI50 [56]: 3.26 µM
- TGI [56]: 50.6 µM
